Assay results from patent publication US10351548B2, “2-oxo-1,2-dihydropyridine-3-carboxamide compounds and their use as inhibitors of PDK1” (INTERNATIONAL SOCIETY FOR DRUG DEVELOPMENT S.R.L., priority 2015, dated 2019).

Legend:
Assay type in all cases: cell-based, human
[1] = test system: U87MG cells; assay: Annexin V and 7-AAD staining in U87MG cells (apoptosis); details: 10 μM, 72 h
Method: Dual staining with Annexin V coniugated to fluorescein-isothiocyanate (FITC) and 7-amino-actinomysin (7-AAD) was performed using the commercially available kit (Muse Annexin V and Dead Cell Kit; Merck KGaA, Darmstadt, Germany). U87MG cells or GSCs were treated with DMSO (control), SA16, SA23 or IB35 for 72 h or seven days, respectively. At the end of the treatment periods, the percentages of living, apoptotic and dead cells were acquired and analysed by Muse™ Cell Analyzer as previously described (Daniele, S., et al., Combined inhibition of AKT/mTOR and MDM2 enhances Glioblastoma Multiforme cell apoptosis and differentiation of cancer stem cells. Sci. Rep., 2015. 5.).
It was then investigated whether the reduction in cell proliferation elicited by the PDK1 inhibitors could be associated with apoptosis. U87MG cells were treated for 72 h with DMSO (control), or 10 μM SA16, SA23 or IB35. At the end of the treatment period, the cells were collected, and the level of phosphatidylserine externalisation was evaluated using the Annexin V-staining protocol, as described above (FIG. 3). In FIG. 4 the data are expressed as the percentage of apoptotic cells (the data for the early-stage apoptotic cells shown in white, and the data for the late-stage apoptotic/necrotic cells shown in grey) versus the total number of cells. The data shown represented the mean±SEM of three different experiments. The significance of the differences was determined with a one-way ANOVA with Bonferroni post-test (*** p<0.001 vs. control).

[2] = test system: GSCs isolated from U87MG cells; assay: GSC proliferation, MTS assay; details: for IC50: Homo sapiens, U-87 MG, 168 h, seven days of treatment, MTS assay; for inhibition of GSC proliferation: starting from four days of treatment
Method: The U87MG cell line was obtained from the National Institute for Cancer Research of Genoa (Italy) and cultured in DMEM 10% FBS and 2 mM glutamine. To isolate GSCs, approximately 2.0×10^6 cells were suspended in 1 mL of a defined serum-free Neural Stem Cell (NSC) medium (Daniele, S., et al., Modulation of A1 and A2B adenosine receptor activity: a new strategy to sensitise glioblastoma stem cells to chemotherapy. Cell death & disease, 2014. 5(11): p. e1539). After 3-4 days of culture, the neurospheres were collected, suspended in NSC medium, dissociated into single cells, and plated for the assays. For the long-term treatment of cells, NSC or complete medium containing drugs was replaced every two to three days.
The human U87MG cells or GSCs were seeded at a density of 3×10^3 cells/well. After 24 h, the cells were treated from one to seven days with fresh growth medium containing different concentrations of SA16, SA23 or IB35. Following the treatment period, cell proliferation was determined using the MTS assay according to manufacturer's instruction. The absorbance of formazan at […] was measured in a colorimetric assay with an automated plate reader (Victor Wallac 2, Perkin Elmer). The results were calculated by subtracting the mean background from the values obtained from each evaluation and were expressed as the percentage of the control (untreated cells). Sigmoid dose-response curve was generated, from which the IC50 values were derived.
The inhibition of PDK1 has been reported as potentially effective therapeutic approach to reduce self-renewal and propagation of GSCs (Signore, M., et al., Combined PDK1 and CHK1 inhibition is required to kill glioblastoma stem-like cells in vitro and in vivo. Cell death & disease, 2014. 5(5): p. e1223). On this basis, the effects of SA16, SA23 and IB35 on GSCs, isolated from U87MG cells as previously reported, were evaluated (Daniele, S., et al., Modulation of A1 and A28 adenosine receptor activity: a new strategy to sensitise glioblastoma stem cells to chemotherapy. Cell death & disease, 2014. 5(11): p. e1539). U87MG-derived GSCs were incubated with the indicated concentrations of IB35, SA23 or SA16 for four days (FIG. 8) or seven days (FIG. 9). At the end of the treatment periods, cell proliferation was measured using the MTS assay. The data were expressed as a percentage with respect to that of untreated cells (control), which was set to 100%, and are the mean values±SEM of three independent experiments, each performed in duplicate. IC50 values after seven days of treatment were calculated from sigmoid dose-response curve (FIG. 9). The significance of the differences was determined with a one-way ANOVA with Bonferroni post-test (** p<0.01, *** p<0.001 vs. control).

[3] = test system: AKT phosphorylation at Thr308 in U87MG cells; assay: PDK1 activity in U87MG cells, (T308)AKT phosphorylation ELISA; details: for inhibition at 10 µM: Homo sapiens, U-87 MG, U87MG cells, read-out: peak of inhibition (percentage of PDK1 inhibition); for time of peak of inhibition of (T308)AKT phosphorylation / inhibition of AKT phosphorylation at Thr308: U87MG, 10 μM; for inhibition of AKT phosphorylation at Thr308: 0-120 min
Method: (§1) U87MG cells were cultured in 96-well microplates (5.000 cells/well), and treated for different times with 10 μM SA16, SA23 or IB35. At the end of the treatment period, the GSCs were centrifuged at 500×g for 3 minutes; cells were washed twice using fresh saline, and rapidly fixed with 4% (for adherent U87MG cells) or 8% (for suspension GSCs) formaldehyde to preserve activation of specific protein modification. The activity of PDK1 was assessed measuring the levels of phosphorylated AKT on Thr308, using a specific primary antibodies. The subsequent incubation with a secondary HRP-conjugated antibody and the developing solution allowed the colorimetric quantification of the levels of phosphorylated protein. The relative number of cells in each well was then determined using the Crystal-Violet assay. The results were calculated by subtracting the mean background value from the values obtained under each test condition: values were normalised to the number of cells in each well and were expressed as the percentages of the control (untreated cells) values.
280(4): p. 1107-1115). […] At the end of the treatment periods, the levels of (T308)AKT phosphorylation was evaluated using an ELISA kit, as described above. The data reported in FIG. 5 were expressed as the percentage of phosphorylated (T308)AKT relative to those of untreated cells (control), which were set at 100%, and were the mean values±SEM of three independent experiments performed in triplicate.

[4] = test system: AKT phosphorylation at Thr308 in GSCs; assay: PDK1 activity in GSCs, (T308)AKT phosphorylation ELISA; details: for time of peak of inhibition of AKT phosphorylation at Thr308 / inhibition of AKT phosphorylation at Thr308: 10 μM; for inhibition of AKT phosphorylation at Thr308: 0-120 min; for inhibition at 10 µM: Homo sapiens, read-out: peak of inhibition (percentage of PDK1 inhibition)
Method: as §1
The effects of the new compounds on PDK1 activity were investigated by ELISA assays also in GSCs. U87MG-derived CSCs were treated for the indicated times (0-120 min) with NSC medium containing DMSO (control), or 10 μM IIB35, SA23 or SA16. At the end of the treatment periods, the levels of AKT phosphorylation on Thr308 were evaluated using an ELISA assay, as above described. The data were expressed as the percentage of phosphorylated AKT relative to those of untreated cells (control), which were set at 100%, and were the mean values±SEM of three independent experiments performed in triplicate. The data are represented in FIG. 12. The significance of differences was performed using one-way ANOVA with Bonferroni post-test (* p<0.05, ** p<0.01, *** p<0.001 vs. control).

SMILES | phosphatidylserine externalization (early and late apoptosis/death) [1] | IC50 [2] [nM] | inhibition of GSC proliferation [2] | inhibition at 10 µM [3] [%] | time of peak of inhibition of (T308)AKT phosphorylation [3] [min] | inhibition of AKT phosphorylation at Thr308 [3] | time of peak of inhibition of AKT phosphorylation at Thr308 [4] [min] | inhibition of AKT phosphorylation at Thr308 [4] | inhibition at 10 µM [4] [%] | percentage of total apoptotic cells [1] [%]
O=C1Nc2ccc(NC(=O)[C@H](NC(=O)c3cccn(Cc4ccc(F)c(F)c4)c3=O)c3ccccc3)cc2/C1=C/c1ncc[nH]1 [SA23, (Z)—(R)—N-(2-((3-((1H-imidazol-2-yl)methylene)-2-oxoindolin-5-yl)amino)-2-oxo-1-phenylethyl)-1-(3,4-difluorobenzyl)-2-oxo-1,2-dihydropyridine-3-carboxamide] | significant phosphatidylserine externalization | 0.3 ± 0.04 | significant inhibition | 48.1 ± 5 | 120 | significantly inhibited | 120 | significantly inhibited | 69 ± 4.5 | –
O=C(CNC(=O)c1cccn(Cc2ccc(F)c(F)c2)c1=O)Nc1ccc2c(c1)/C(=C/c1cnc[nH]1)C(=O)N2 [IB35, (Z)—N-(2-((3-((1H-imidazol-5-yl)methylene)-2-oxoindolin-5-yl)amino)-2-oxoethyl)-1-(3,4-difluorobenzyl)-2-oxo-1,2-dihydro pyridine-3-carboxamide] | significant phosphatidylserine externalization | 3.36 ± 0.4 | significant inhibition | 54 ± 5.2 | 120 | significantly inhibited | 120 | significantly inhibited | 80.4 ± 3.7 | 23.0±1.9
